What was measured:
BJeLR = assay: Modulatory profiling: Alamar Blue viability, lethal compound cotreated with death modulator (EC50, AUC); type: cell-based, human; parameters: AUC, modulator BJ.Gd3+ / AUC, modulator BJ.LNAME / AUC, modulator BJ.Lmin / AUC, modulator BJ.3MA / AUC, modulator BJ.ALLN / AUC, modulator BJ.Boc D / AUC, modulator BJ.CHX / AUC, modulator BJ.Co2+ / AUC, modulator BJ.Nec-1 / AUC, modulator BJ.Pepstatin / AUC, modulator BJ.TLCK / AUC, modulator BJ.atoc / AUC, modulator BJ.trolox / AUC, modulator BJ.zVAD: unit not given beside the values; settings: BJeLR cells, modulatory profile value (AUC); for AUC, modulator BJ.3MA: lethal compound cotreated with modulator 3MA; for AUC, modulator BJ.ALLN: lethal compound cotreated with modulator ALLN; for AUC, modulator BJ.Boc D: lethal compound cotreated with modulator Boc D; for AUC, modulator BJ.CHX: lethal compound cotreated with modulator CHX; for AUC, modulator BJ.Co2+: lethal compound cotreated with modulator Co2+; for AUC, modulator BJ.DPQ: lethal compound cotreated with modulator DPQ; for AUC, modulator BJ.Gd3+: lethal compound cotreated with modulator Gd3+; for AUC, modulator BJ.LNAME: lethal compound cotreated with modulator LNAME; for AUC, modulator BJ.Lmin/NAD+: lethal compound cotreated with modulator Lmin/NAD+; for AUC, modulator BJ.Lmin: lethal compound cotreated with modulator Lmin; for AUC, modulator BJ.NAD+: lethal compound cotreated with modulator NAD+; for AUC, modulator BJ.NMMA: lethal compound cotreated with modulator NMMA; for AUC, modulator BJ.Nec-1: lethal compound cotreated with modulator Nec-1; for AUC, modulator BJ.Pepstatin: lethal compound cotreated with modulator Pepstatin; for AUC, modulator BJ.TLCK: lethal compound cotreated with modulator TLCK; for AUC, modulator BJ.atoc: lethal compound cotreated with modulator atoc; for AUC, modulator BJ.trolox: lethal compound cotreated with modulator trolox; for AUC, modulator BJ.zVAD: lethal compound cotreated with modulator zVAD; for AUC, modulator BJ.3MA: reference of the scale not given here; for AUC, modulator BJ.ALLN: reference of the scale not given here; for AUC, modulator BJ.Boc D: reference of the scale not given here; for AUC, modulator BJ.CHX: reference of the scale not given here; for AUC, modulator BJ.Co2+: reference of the scale not given here; for AUC, modulator BJ.DPQ: reference of the scale not given here; for AUC, modulator BJ.Gd3+: reference of the scale not given here; for AUC, modulator BJ.LNAME: reference of the scale not given here; for AUC, modulator BJ.NAD+: reference of the scale not given here; for AUC, modulator BJ.NMMA: reference of the scale not given here; for AUC, modulator BJ.Nec-1: reference of the scale not given here; for AUC, modulator BJ.Pepstatin: reference of the scale not given here; for AUC, modulator BJ.TLCK: reference of the scale not given here
HT-1080 = assay: as above; type: cell-based; parameters: AUC, modulator HT.3MA / AUC, modulator HT.ALLN / AUC HT.ATA / AUC HT.ActD / AUC HT.BHA / AUC HT.BHT / AUC HT.BocD / AUC HT.CHX / AUC HT.Co2+ / AUC HT.DPQ / AUC HT.EGTA / AUC HT.Lmim / AUC HT.NAD+ / AUC HT.Nec-1 / AUC HT.SP600125 / AUC HT.TLCK / AUC HT.U0126: unit not given beside the values; settings: for AUC HT.ATA: HT-1080, modulator ATA; for AUC HT.ActD: HT-1080, modulator ActD; for AUC HT.BHA: HT-1080, modulator BHA; for AUC HT.BHT: HT-1080, modulator BHT; for AUC HT.BocD: HT-1080, modulator BocD; for AUC HT.CHX: HT-1080, modulator CHX; for AUC HT.Co2+: HT-1080, modulator Co2+; for AUC HT.CspA: HT-1080, modulator CspA; for AUC HT.DPQ: HT-1080, modulator DPQ; for AUC HT.EGTA: HT-1080, modulator EGTA; for AUC HT.Gd3+: HT-1080, modulator Gd3+; for AUC HT.LNAME: HT-1080, modulator LNAME; for AUC HT.Lmim: HT-1080, modulator Lmim; for AUC HT.NAD+: HT-1080, modulator NAD+; for AUC HT.NMMA: HT-1080, modulator NMMA; for HT.atoc (AUC) / HT.bCarotene (AUC) / HT.deferox (AUC) / HT.digoxin (AUC) / HT.trolox (AUC) / HT.zVAD (AUC): HT-1080; for HT.atoc (AUC): modulator atoc; for HT.bCarotene (AUC): modulator bCarotene; for HT.deferox (AUC): modulator deferox; for HT.digoxin (AUC): modulator digoxin; for HT.trolox (AUC): modulator trolox; for HT.zVAD (AUC): modulator zVAD; for AUC, modulator HT.3MA / AUC, modulator HT.ALLN: HT-1080 cells, modulatory profile value (AUC); for AUC, modulator HT.3MA: lethal compound cotreated with modulator 3MA; for AUC, modulator HT.ALLN: lethal compound cotreated with modulator ALLN
Throughout, for AUC HT.BHA: reference of the scale not given here.
Throughout, for AUC HT.EGTA: reference of the scale not given here.

## COc1nn(-c2ccccc2)c(=O)c(Cl)c1Cl [CIL23]
BJeLR
  AUC, modulator BJ.3MA: −0.01613
  AUC, modulator BJ.ALLN: −0.04561
  AUC, modulator BJ.Boc D: −0.01959
  AUC, modulator BJ.CHX: −0.02303
  AUC, modulator BJ.Co2+: −0.01594
  AUC, modulator BJ.DPQ: 0.004379
  AUC, modulator BJ.Gd3+: 0.03265
  AUC, modulator BJ.LNAME: −0.02129
  AUC, modulator BJ.Lmin/NAD+: 0.004125
  AUC, modulator BJ.Lmin: −0.01617
  AUC, modulator BJ.NAD+: 0.005104
  AUC, modulator BJ.NMMA: −0.01242
  AUC, modulator BJ.Nec-1: 0.03269
  AUC, modulator BJ.Pepstatin: −0.001663
  AUC, modulator BJ.TLCK: −0.007806
  AUC, modulator BJ.atoc: 0.002315
  AUC, modulator BJ.trolox: −0.02152
  AUC, modulator BJ.zVAD: 0.04691
HT-1080
  AUC HT.ATA: 0.01792
  AUC HT.ActD: 0.01969
  AUC HT.BHA: 0.00702
  AUC HT.BHT: −0.02762
  AUC HT.BocD: −0.01259
  AUC HT.CHX: 0.08773
  AUC HT.Co2+: 0.03316
  AUC HT.CspA: −0.02326
  AUC HT.DPQ: 0.01052
  AUC HT.EGTA: −0.01323
  AUC HT.Gd3+: −0.000221
  AUC HT.LNAME: 0.005628
  AUC HT.Lmim: 0.01608
  AUC HT.NAD+: −0.0002222
  AUC HT.NMMA: −0.001084
  HT.atoc (AUC): 0.03663
  HT.bCarotene (AUC): −0.001122
  HT.deferox (AUC): 0.1512
  HT.digoxin (AUC): 0.03673
  HT.trolox (AUC): 0.004402
  HT.zVAD (AUC): 0.02043
  AUC, modulator HT.3MA: 0.01609
  AUC, modulator HT.ALLN: 0.001521

## Cc1ccc(O)c(/N=C/C=C/c2cccc(Br)c2)c1 [CIL27]
BJeLR
  AUC, modulator BJ.3MA: 0.0403
  AUC, modulator BJ.ALLN: −0.06604
  AUC, modulator BJ.Boc D: −0.08049
  AUC, modulator BJ.CHX: 0.1399
  AUC, modulator BJ.Co2+: 0.05931
  AUC, modulator BJ.DPQ: 0.0171
  AUC, modulator BJ.Gd3+: −0.02406
  AUC, modulator BJ.LNAME: −0.04381
  AUC, modulator BJ.Lmin/NAD+: 0.02365
  AUC, modulator BJ.Lmin: 0.01472
  AUC, modulator BJ.NAD+: −0.01357
  AUC, modulator BJ.NMMA: 0.009474
  AUC, modulator BJ.Nec-1: −0.05452
  AUC, modulator BJ.Pepstatin: 0.006509
  AUC, modulator BJ.TLCK: −0.03065
  AUC, modulator BJ.atoc: 0.002404
  AUC, modulator BJ.trolox: 0.0004949
  AUC, modulator BJ.zVAD: −0.003575
HT-1080
  AUC HT.ATA: 0.04845
  AUC HT.ActD: 0.03171
  AUC HT.BHA: −0.0156
  AUC HT.BHT: −0.05537
  AUC HT.BocD: 0.003288
  AUC HT.CHX: 0.04576
  AUC HT.Co2+: 0.04606
  AUC HT.CspA: −0.03639
  AUC HT.DPQ: 0.02307
  AUC HT.EGTA: 0.02604
  AUC HT.Gd3+: −0.0168
  AUC HT.LNAME: 0.001204
  AUC HT.Lmim: −0.001055
  AUC HT.NAD+: −0.0034
  AUC HT.NMMA: −0.01331
  HT.atoc (AUC): 0.04362
  HT.bCarotene (AUC): −0.01166
  HT.deferox (AUC): 0.1441
  HT.digoxin (AUC): 0.001262
  HT.trolox (AUC): −0.05943
  HT.zVAD (AUC): −0.01508
  AUC, modulator HT.3MA: 0.0766
  AUC, modulator HT.ALLN: 0.1636

## COC(C)(C)C#CC(=O)c1cccc2ccccc12 [CIL34]
BJeLR
  AUC, modulator BJ.3MA: 0.07701
  AUC, modulator BJ.ALLN: −0.04374
  AUC, modulator BJ.Boc D: −0.02462
  AUC, modulator BJ.CHX: 0.1215
  AUC, modulator BJ.Co2+: 0.07311
  AUC, modulator BJ.DPQ: 0.03951
  AUC, modulator BJ.Gd3+: −0.032
  AUC, modulator BJ.LNAME: −0.01631
  AUC, modulator BJ.Lmin/NAD+: 0.04257
  AUC, modulator BJ.Lmin: −0.0234
  AUC, modulator BJ.NAD+: −0.004372
  AUC, modulator BJ.NMMA: 0.03326
  AUC, modulator BJ.Nec-1: −0.03852
  AUC, modulator BJ.Pepstatin: 0.04418
  AUC, modulator BJ.TLCK: −0.1073
  AUC, modulator BJ.atoc: 0.05781
  AUC, modulator BJ.trolox: 0.007029
  AUC, modulator BJ.zVAD: 0.005997
HT-1080
  AUC HT.ATA: 0.05661
  AUC HT.ActD: −0.03224
  AUC HT.BHA: 0.01628
  AUC HT.BHT: −0.1102
  AUC HT.BocD: −0.007476
  AUC HT.CHX: 0.0461
  AUC HT.Co2+: 0.09926
  AUC HT.CspA: −0.02181
  AUC HT.DPQ: 0.0333
  AUC HT.EGTA: −0.002035
  AUC HT.Gd3+: −0.02283
  AUC HT.LNAME: −0.00517
  AUC HT.Lmim: −0.002139
  AUC HT.NAD+: −0.005535
  AUC HT.NMMA: −0.003031
  HT.atoc (AUC): 0.08125
  HT.bCarotene (AUC): 0.001321
  HT.deferox (AUC): 0.1115
  HT.digoxin (AUC): −0.01032
  HT.trolox (AUC): −0.02993
  HT.zVAD (AUC): 0.007148
  AUC, modulator HT.3MA: 0.1255
  AUC, modulator HT.ALLN: 0.1551
